Our source for the IC50 values is patent US11420961B2, “Heterocyclic compounds” (Hoffmann-La Roche Inc., priority 2017, dated 2022).

SMILES strings stand for the structures.

In this experiment the target is T1, MAGL (recombinant wild-type) (Homo sapiens, UniProt Q99685).
T1 sequence (Q99685 1-303): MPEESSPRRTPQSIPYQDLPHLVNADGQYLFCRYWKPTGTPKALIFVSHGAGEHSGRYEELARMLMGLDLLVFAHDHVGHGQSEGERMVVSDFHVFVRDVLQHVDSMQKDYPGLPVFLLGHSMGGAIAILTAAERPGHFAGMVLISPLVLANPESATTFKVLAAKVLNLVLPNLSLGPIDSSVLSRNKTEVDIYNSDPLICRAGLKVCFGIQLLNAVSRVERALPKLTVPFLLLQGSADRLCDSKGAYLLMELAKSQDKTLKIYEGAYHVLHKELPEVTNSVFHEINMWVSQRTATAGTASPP
The experiment in a line: 4-NPA assay: MAGL inhibitory activity by hydrolysis of 4-nitrophenylacetate, absorbance at 405 nm. Particulars: 4-NPA assay (values without footnote [a]). The experiment is classed as biochemical. In short, it runs like this: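 Compound (final 25 μM to 1.7 nM, 3-fold steps) was preincubated 15 min at RT with 1 nM MAGL in 50 mM Tris, 1 mM EDTA, then 300 μM 4-nitrophenylacetate was added. A405 was read after 5 min and again 80 min later at RT, and activity was taken as the difference between the two reads.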
Regarding `O=C1COc2ccc(C(=O)N3CCC([C@@H](c4ccccc4)c4cccc(OCCF)c4)CC3)cc2N1` [Example 81, 6-[4-[(S)-[3-(2-fluoroethoxy)phenyl]-phenyl-methyl]piperidine-1-carbonyl]-4H-1,4-benzoxazin-3-one], the IC50 (commonly the concentration needed to halve the response being measured) was determined as 1.1 nM. As to `COc1ccc(C(c2ccncc2)C2CCN(C(=O)c3ccc4c(c3)NC(=O)CO4)CC2)cc1OC` (single isomer, unassigned) [Example 125, 6-[4-[(S or R)-(3,4-Dimethoxyphenyl)-(4-pyridyl)methyl]piperidine-1-carbonyl]-4H-1,4-benzoxazin-3-one], the IC50 was found to be 7.7 nM. Next, `COc1ccc(C(c2cccnc2)C2CCN(C(=O)c3ccc4c(c3)NC(=O)CO4)CC2)cc1OC` (single isomer, unassigned) [Example 123, 6-[4-[(S or R)-(3,4-Dimethoxyphenyl)-(3-pyridyl)methyl]piperidine-1-carbonyl]-4H-1,4-benzoxazin-3-one]: 8.7 nM; `O=C1COc2ccc(C(=O)N3CCC(c4cc5ccc(Cl)cc5[nH]4)CC3)cc2N1` [Example 46, 6-[4-(6-chloro-1H-indol-2-yl)piperidine-1-carbonyl]-4H-1,4-benzoxazin-3-one]: 1110 nM; `Cn1nc(C2CCN(C(=O)c3ccc4c(c3)NC(=O)CO4)CC2)c2ccc(Cl)cc21` [Example 39, 6-[4-(6-chloro-1-methylindazol-3-yl)piperidine-1-carbonyl]-4H-1,4-benzoxazin-3-one]: 84 nM. Consider `O=C1COc2ccc(C(=O)N3CCC(C4(c5ccc(Cl)cc5)CCCO4)CC3)cc2N1` (stereo not drawn) [Example 53, 6-[4-[2-(4-chlorophenyl)oxolan-2-yl]piperidine-1-carbonyl]-4H-1,4-benzoxazin-3-one], for which the IC50 stood at 6.3 nM.

For the molecule `O=C1COc2ccc(C(=O)N3CCC(c4noc5ccc(F)cc45)CC3)cc2N1` [Example 52, 6-[4-(5-fluoro-1,2-benzoxazol-3-yl)piperidine-1-carbonyl]-4H-1,4-benzoxazin-3-one], the IC50 worked out at 140 nM.

Take `COc1cccc([C@@H](c2ccccc2)C2CCN(C(=O)c3ccc4c(c3)NC(=O)CO4)CC2)c1` (single isomer, unassigned) [Example 13]: the IC50 came to 0.5 nM. For `O=C1COc2ccc(C(=O)N3CCN(c4ccc(Cl)c(Cl)c4)CC3)cc2N1` [Example 86, 6-[4-(3,4-dichlorophenyl)piperazine-1-carbonyl]-4H-1,4-benzoxazin-3-one], the IC50 came out at 612 nM. Take `O=C1COc2ccc(C(=O)N3CCC(C(c4ccccc4)c4cccc(OCCF)c4)CC3)cc2N1` (stereo not drawn) [Example 72, 6-[4-[[3-(2-fluoroethoxy)phenyl]-phenyl-methyl]piperidine-1-carbonyl]-4H-1,4-benzoxazin-3-one]: the IC50 is 0.55 nM. Take `CS(=O)(=O)c1cccc(C(c2ccccc2)C2CCN(C(=O)c3ccc4c(c3)NC(=O)CO4)CC2)c1` (single isomer, unassigned) [Example 128, 6-[4-[(S or R)-(3-Methylsulfonylphenyl)-phenyl-methyl]piperidine-1-carbonyl]-4H-1,4-benzoxazin-3-one]: the IC50 came out at 0.6 nM. With `COc1ccc2[nH]cc(C3CCN(C(=O)c4ccc5c(c4)NC(=O)CO5)CC3)c2c1` [Example 24, 6-[4-(5-methoxy-1H-indol-3-yl)piperidine-1-carbonyl]-4H-1,4-benzoxazin-3-one], the IC50 came out at 20 nM.

Take `COc1cc(N2CCN(C(=O)c3ccc4c(c3)NC(=O)CO4)CC2)cc(OC)c1OC` [Example 92, 6-[4-(3,4,5-trimethoxyphenyl)piperazine-1-carbonyl]-4H-1,4-benzoxazin-3-one]: the 50% inhibitory concentration (IC50) worked out at 2740 nM.

Turning to `O=C1COc2ccc(C(=O)N3CCC(C(c4ccccc4)c4ccc(F)nc4)CC3)cc2N1` (single isomer, unassigned) [Example 103, 6-[4-[(R or S)-(6-Fluoro-3-pyridyl)-phenyl-methyl]piperidine-1-carbonyl]-4H-1,4-benzoxazin-3-one], the IC50 was 2.2 nM. With `O=C1COc2ccc(C(=O)N3CCC(c4n[nH]c5cc(F)ccc45)CC3)cc2N1` [Example 43, 6-[4-(6-fluoro-1H-indazol-3-yl)piperidine-1-carbonyl]-4H-1,4-benzoxazin-3-one], the IC50 was found to be 180 nM. As to `O=C1COc2ccc(C(=O)N3CCC(C(c4ccccc4)c4ccc(OCCOCCF)cc4)CC3)cc2N1` (single isomer, unassigned) [Example 96, 6-[4-[(S or R)-[4-[2-(2-Fluoroethoxy)ethoxy]phenyl]-phenyl-methyl]piperidine-1-carbonyl]-4H-1,4-benzoxazin-3-one], the IC50 was 0.2 nM. For `O=C1COc2ccc(C(=O)N3CCC(C(O)(c4ccccc4)c4ccccc4)CC3)cc2N1` [Example 5, 6-[4-[Hydroxy(diphenyl)methyl]piperidine-1-carbonyl]-4H-1,4-benzoxazin-3-one], the IC50 came out at 15 nM.

With `Cc1cccc(C(c2ccccc2)C2CCN(C(=O)c3ccc4c(c3)NC(=O)CO4)CC2)c1` (stereo not drawn) [Example 59, 6-[4-[m-tolyl(phenyl)methyl]piperidine-1-carbonyl]-4H-1,4-benzoxazin-3-one], the IC50 was 0.5 nM. Take `Cn1cc(C2CCN(C(=O)c3cc4c(cc3F)OCC(=O)N4)CC2)c2cc(Cl)c(F)cc21` [Example 26, 6-[4-(5-chloro-6-fluoro-1-methylindol-3-yl)piperidine-1-carbonyl]-7-fluoro-4H-1,4-benzoxazin-3-one]: the half-maximal inhibitory concentration (IC50) was determined as 1.8 nM. Consider `Cc1ccc(C(c2ccc(F)cc2)C2CCN(C(=O)c3ccc4c(c3)NC(=O)CO4)CC2)cc1` (single isomer, unassigned) [Example 112, 6-[4-[(S or R)-(4-Fluorophenyl)-(p-tolyl)methyl]piperidine-1-carbonyl]-4H-1,4-benzoxazin-3-one], for which the IC50 was determined as 0.3 nM. The value for `COc1ccc(C(c2ccccn2)C2CCN(C(=O)c3ccc4c(c3)NC(=O)CO4)CC2)cc1OC` (single isomer, unassigned) [Example 116, 6-[4-[(R or S)-(3,4-Dimethoxyphenyl)-(2-pyridyl)methyl]piperidine-1-carbonyl]-4H-1,4-benzoxazin-3-one] was 55.4 nM.

In the case of `O=C1COc2ccc(C(=O)N3CCC(C(c4ccc(F)cc4)c4ccc(F)nc4)CC3)cc2N1` (single isomer, unassigned) [Example 114, 6-[4-[(S or R)-(4-Fluorophenyl)-(6-fluoro-3-pyridyl)methyl]piperidine-1-carbonyl]-4H-1,4-benzoxazin-3-one], the IC50 was 4 nM. With `COc1ccc(C(c2cccnc2)C2CCN(C(=O)c3ccc4c(c3)NC(=O)CO4)CC2)cc1OC` (single isomer, unassigned) [Example 122, 6-[4-[(R or S)-(3,4-Dimethoxyphenyl)-(3-pyridyl)methyl]piperidine-1-carbonyl]-4H-1,4-benzoxazin-3-one], the IC50 was found to be 3.6 nM.

As to `O=C1COc2ccc(C(=O)N3CCC(c4nnc(-c5ccccc5)o4)CC3)cc2N1` [Example 48, 6-[4-(5-phenyl-1,3,4-oxadiazol-2-yl)piperidine-1-carbonyl]-4H-1,4-benzoxazin-3-one], the IC50 came to 549 nM. Next, `O=C1COc2ccc(C(=O)N3CCC(C(c4ccccc4)c4ccccc4)CC3)cc2N1` [Example 2, 6-(4-Benzhydrylpiperidine-1-carbonyl)-4H-1,4-benzoxazin-3-one]: 0.5 nM; `COc1ccc(C(c2ccccc2)C2CCN(C(=O)c3ccc4c(c3)NC(=O)CO4)CC2)cc1` (stereo not drawn) [Example 58, 6-[4-[(4-methoxyphenyl)-phenyl-methyl]piperidine-1-carbonyl]-4H-1,4-benzoxazin-3-one]: 0.8 nM; `O=C1COc2ccc(C(=O)N3CCC(C(c4ccccc4)c4cccc(F)n4)CC3)cc2N1` (single isomer, unassigned) [Example 99, 6-[4-[(R or S)-(6-fluoro-2-pyridyl)-phenyl-methyl]piperidine-1-carbonyl]-4H-1,4-benzoxazin-3-one]: 2.6 nM. For `COc1ccc(C(c2ccccc2)C2CN(C(=O)c3ccc4c(c3)NC(=O)CO4)C2)cc1OC` (stereo not drawn) [Example 127, 6-[3-[(3,4-Dimethoxyphenyl)-phenyl-methyl]azetidine-1-carbonyl]-4H-1,4-benzoxazin-3-one], the IC50 was 802 nM. For `O=C1COc2ccc(C(=O)N3CCC(C(c4ccc(F)cc4)c4ccnc(F)c4)CC3)cc2N1` (single isomer, unassigned) [Example 110, 6-[4-[(S or R)-(4-Fluorophenyl)-(2-fluoro-4-pyridyl)methyl]piperidine-1-carbonyl]-4H-1,4-benzoxazin-3-one], the IC50 is 6.2 nM. Regarding `O=C1COc2ccc(C(=O)N3CCC(c4noc5cc(F)ccc45)CC3)cc2N1` [Example 51, 6-[4-(6-fluoro-1,2-benzoxazol-3-yl)piperidine-1-carbonyl]-4H-1,4-benzoxazin-3-one], the half-maximal inhibitory concentration (IC50) was determined as 370 nM. As to `COc1cc(OC)cc(N2CCN(C(=O)c3ccc4c(c3)NC(=O)CO4)CC2)c1` [Example 89, 6-[4-(3,5-dimethoxyphenyl)piperazine-1-carbonyl]-4H-1,4-benzoxazin-3-one], the IC50 was 1900 nM. In the case of `O=C1COc2ccc(C(=O)N3CCC(C(c4ccc(F)cc4)c4cccc(F)n4)CC3)cc2N1` (single isomer, unassigned) [Example 118, 6-[4-[(S or R)-(4-fluorophenyl)-(6-fluoro-2-pyridyl)methyl]piperidine-1-carbonyl]-4H-1,4-benzoxazin-3-one], the IC50 is 4.8 nM. For `Cn1cc(C2CCN(C(=O)c3ccc4c(c3)NC(=O)CO4)CC2)c2cc(Cl)c(F)cc21` [Example 27, 6-[4-(5-chloro-6-fluoro-1-methylindol-3-yl)piperidine-1-carbonyl]-4H-1,4-benzoxazin-3-one], the IC50 is 2.8 nM.
